{"source": "patent US10556883B2", "about": "“Benzenesulfonamide compounds, method for synthesizing same, and use thereof in medicine and cosmetics” (GALDERMA RESEARCH & DEVELOPMENT, priority 2016, dated 2020)"}
{"tested_on": "TNFα secretion from LPS stimulated frozen Peripheral Blood Mononuclear Cells (PBMC)", "assay": "inhibition of TNFα secretion from LPS stimulated human PBMC (hPBMC assay)", "assay_type": "cell-based", "details": "LPS 1 μg/mL, overnight incubation, TNFα by HTRF", "method": "Activity of the compounds was investigated using human peripheral blood mononuclear cells (hPBMC). This assay was designed to measure the inhibition of the TNFα secretion from LPS stimulated frozen Peripheral Blood Mononuclear Cells (PBMC) isolated from human blood. TNFα levels were measured using HTRF® Human TNFα kit (Cisbio #62TNFPEC) which is a rapid and quantitative sandwich immunoassay based on TR-FRET technology.\nFrozen PBMC were quickly thawed, resuspended in culture medium (RPMI 10% inactivated FBS) and viable cells were seeded in 96-well plates (50,000 cells/well). […] After overnight incubation at 37° C., 10 μL of cell supernatant were mixed with 5 μL of each tagged anti-TNFα specific antibody as recommended by the supplier. After 2 hours of incubation at room temperature, the HTRF® signals were measured using a microplate reader (wavelengths: excitation=337 nm, first emission=620 nm, second emission=665 nm).", "units": {"IC50": "µM"}}
{"smiles": "Cc1cc(COc2ccc(S(=O)(=O)NC3(CC(=O)NO)CN(C(=O)N4CCCCC4)C3)cc2)c2ccccc2n1", "note": "[Example 9, N-hydroxy-2-(3-((4-((2-methylquinolin-4-yl)methoxy)phenyl)sulfonamido)-1-(piperidine-1-carbonyl)azetidin-3-yl)acetamide]", "IC50": "< 0.05"}
{"smiles": "CCCCC(=O)N1CC(NS(=O)(=O)c2ccc(OCc3cc(C)nc4ccccc34)cc2)(C(=O)NO)C1", "note": "[Example 7i, N-hydroxy-3-((4-((2-methylquinolin-4-yl)methoxy)phenyl)sulfonamido)-1-pentanoylazetidine-3-carboxamide]", "IC50": "< 0.05"}
{"smiles": "Cc1cc(COc2ccc(S(=O)(=O)N(C)C3(C(=O)NO)CN(C(=O)C4CCOCC4)C3)cc2)c2ccccc2n1", "note": "[Example 19c, N-hydroxy-3-((N-methyl-4-((2-methylquinolin-4-yl)methoxy)phenyl)sulfonamido)-1-(tetrahydro-2H-pyran-4-carbonyl)azetidine-3-carboxamide]", "IC50": "< 0.05"}
{"smiles": "Cc1cc(COc2ccc(S(=O)(=O)N(C)C3(C(=O)NO)CN(C(=O)C(C)C)C3)cc2)c2ccccc2n1", "note": "[Example 19a, N-hydroxy-1-isobutyryl-3-((N-methyl-4-((2-methylquinolin-4-yl)methoxy)phenyl)sulfonamido)azetidine-3-carboxamide]", "IC50": "< 0.05"}
{"smiles": "Cc1cc(COc2ccc(S(=O)(=O)NC3(C(=O)NO)CN(C(=O)CC4CC4)C3)cc2)c2ccccc2n1", "note": "[Example 26c, 1-(2-cyclopropylacetyl)-N-hydroxy-3-((4-((2-methylquinolin-4-yl)methoxy)phenyl)sulfonamido)azetidine-3-carboxamide]", "IC50": "< 0.05"}
{"smiles": "CC(=O)N1CC(CC(=O)NO)(N(C)S(=O)(=O)c2ccc(OCc3cc(C)nc4ccccc34)cc2)C1", "note": "[Example 3, 2-(1-acetyl-3-((N-methyl-4-((2-methylquinolin-4-yl)methoxy)phenyl)sulfonamido)azetidin-3-yl)-N-hydroxyacetamide]", "IC50": "0.5 to 1"}
{"smiles": "Cc1cc(COc2ccc(S(=O)(=O)NC3(C(=O)NO)CN(C(=O)C(C)C)C3)cc2)c2cccc(C)c2n1", "note": "[Example 27, 3-((4-((2,8-dimethylquinolin-4-yl)methoxy)phenyl)sulfonamido)-N-hydroxy-1-isobutyrylazetidine-3-carboxamide]", "IC50": "0.1 to 0.5"}
{"smiles": "CCOC(=O)N1CC(CC(=O)NO)(NS(=O)(=O)c2ccc(OCc3cc(C)nc4ccccc34)cc2)C1", "note": "[Example 5a, Ethyl 3-(2-(hydroxyamino)-2-oxoethyl)-3-((4-((2-methylquinolin-4-yl)methoxy)phenyl)sulfonamido)azetidine-1-carboxylate]", "IC50": "< 0.05"}
{"smiles": "CCN(C1(C(=O)NO)CN(C(=O)C(C)C)C1)S(=O)(=O)c1ccc(OCc2cc(C)nc3ccccc23)cc1", "note": "[Example 21a, 3-((N-ethyl-4-((2-methylquinolin-4-yl)methoxy)phenyl)sulfonamido)-N-hydroxy-1-isobutyrylazetidine-3-carboxamide]", "IC50": "< 0.05"}
{"smiles": "COC(=O)N1CC(CC(=O)NO)(NS(=O)(=O)c2ccc(OCc3cc(C)nc4ccccc34)cc2)C1", "note": "[Example 5b, methyl 3-(2-(hydroxyamino)-2-oxoethyl)-3-((4-((2-methylquinolin-4-yl)methoxy)phenyl)sulfonamido)azetidine-1-carboxylate]", "IC50": "< 0.05"}
{"smiles": "Cc1cc(COc2ccc(S(=O)(=O)NC3(C(=O)NO)CN(C(=O)N4CCOCC4)C3)cc2)c2ccccc2n1", "note": "[Example 16b, N-hydroxy-3-((4-((2-methylquinolin-4-yl)methoxy)phenyl)sulfonamido)-1-(morpholine-4-carbonyl)azetidine-3-carboxamide]", "IC50": "< 0.05"}
{"smiles": "CO[C@H]1C[C@H](C(=O)N2CC(NS(=O)(=O)c3ccc(OCc4cc(C)nc5ccccc45)cc3)(C(=O)NO)C2)C1", "note": "[Example 26a, N-hydroxy-1-((1r,3r)-3-methoxycyclobutane-1-carbonyl)-3-((4-((2-methylquinolin-4-yl)methoxy)phenyl)sulfonamido)azetidine-3-carboxamide]", "IC50": "< 0.05"}
{"smiles": "Cc1cc(COc2ccc(S(=O)(=O)NC3(CC(=O)NO)CN(C(=O)CC(C)C)C3)cc2)c2ccccc2n1", "note": "[Example 4a, N-hydroxy-2-(1-(3-methylbutanoyl)-3-((4-((2-methylquinolin-4-yl)methoxy)phenyl)sulfonamido)azetidin-3-yl)acetamide]", "IC50": "< 0.05"}
{"smiles": "Cc1cc(COc2ccc(S(=O)(=O)NC3(CC(=O)NO)CN(C(=O)CC4CCC4)C3)cc2)c2ccccc2n1", "note": "[Example 13, 2-(1-(2-cyclobutylacetyl)-3-((4-((2-methylquinolin-4-yl)methoxy)phenyl)sulfonamido)azetidin-3-yl)-N-hydroxyacetamide]", "IC50": "< 0.05"}
{"smiles": "Cc1cc(COc2ccc(S(=O)(=O)NC3(CC(=O)NO)CN(C(=O)C4CCCCC4)C3)cc2)c2ccccc2n1", "note": "[Example 4j, 2-(1-(cyclohexanecarbonyl)-3-((4-((2-methylquinolin-4-yl)methoxy)phenyl)sulfonamido)azetidin-3-yl)-N-hydroxyacetamide]", "IC50": "< 0.05"}
{"smiles": "CCC(CC)C(=O)N1CC(C(=O)NO)(N(C)S(=O)(=O)c2ccc(OCc3cc(C)nc4ccccc34)cc2)C1", "note": "[Example 19b, 1-(2-ethylbutanoyl)-N-hydroxy-3-((N-methyl-4-((2-methylquinolin-4-yl)methoxy)phenyl)sulfonamido)azetidine-3-carboxamide]", "IC50": "0.05 to 0.1"}
{"smiles": "Cc1cc(COc2ccc(S(=O)(=O)NC3(CC(=O)NO)CN(C(=O)N4CCOCC4)C3)cc2)c2ccccc2n1", "note": "[Example 25, N-hydroxy-2-(3-((4-((2-methylquinolin-4-yl)methoxy)phenyl)sulfonamido)-1-(morpholine-4-carbonyl)azetidin-3-yl)acetamide]", "IC50": "< 0.05"}
{"smiles": "Cc1cc(COc2ccc(S(=O)(=O)NC3(C(=O)NO)CN(C(=O)C(C)(C)C)C3)cc2)c2ccccc2n1", "note": "[Example 7a, N-hydroxy-3-((4-((2-methylquinolin-4-yl)methoxy)phenyl)sulfonamido)-1-pivaloylazetidine-3-carboxamide]", "IC50": "0.05 to 0.1"}
{"smiles": "CC(=O)N1CC(CC(=O)NO)(NS(=O)(=O)c2ccc(OCc3cc(C)nc4ccccc34)cc2)C1", "note": "[Example 1, 2-(1-acetyl-3-((4-((2-methylquinolin-4-yl)methoxy)phenyl)sulfonamido)azetidin-3-yl)-N-hydroxyacetamide]", "IC50": "< 0.05"}
{"smiles": "Cc1cc(COc2ccc(S(=O)(=O)NC3(CC(=O)NO)CN(C(=O)OC(C)C)C3)cc2)c2ccccc2n1", "note": "[Example 5d, isopropyl 3-(2-(hydroxyamino)-2-oxoethyl)-3-((4-((2-methylquinolin-4-yl)methoxy)phenyl)sulfonamido)azetidine-1-carboxylate]", "IC50": "< 0.05"}
{"smiles": "Cc1cc(COc2ccc(S(=O)(=O)NC3(CC(=O)NO)CN(C(=O)C4CC4)C3)cc2)c2ccccc2n1", "note": "[Example 4c, 2-(1-(cyclopropanecarbonyl)-3-((4-((2-methylquinolin-4-yl)methoxy)phenyl)sulfonamido)azetidin-3-yl)-N-hydroxyacetamide]", "IC50": "< 0.05"}
{"smiles": "Cc1cc(COc2ccc(S(=O)(=O)NC3(CC(=O)NO)CN(C(=O)C4CCCC4)C3)cc2)c2ccccc2n1", "note": "[Example 4h, 2-(1-(cyclopentanecarbonyl)-3-((4-((2-methylquinolin-4-yl)methoxy)phenyl)sulfonamido)azetidin-3-yl)-N-hydroxyacetamide]", "IC50": "< 0.05"}
{"smiles": "CCC(CC)C(=O)N1CC(NS(=O)(=O)c2ccc(OCc3cc(C)nc4ccccc34)cc2)(C(=O)NO)C1", "note": "[Example 7f, 1-(2-ethylbutanoyl)-N-hydroxy-3-((4-((2-methylquinolin-4-yl)methoxy)phenyl)sulfonamido)azetidine-3-carboxamide]", "IC50": "0.05 to 0.1"}
{"smiles": "Cc1cc(COc2ccc(S(=O)(=O)NC3(C(=O)NO)CN(C(=O)CC(C)(C)C)C3)cc2)c2ccccc2n1", "note": "[Example 15, 1-(3,3-dimethylbutanoyl)-N-hydroxy-3-((4-((2-methylquinolin-4-yl)methoxy)phenyl)sulfonamido)azetidine-3-carboxamide]", "IC50": "0.05 to 0.1"}
{"smiles": "CCC(CC)C(=O)N1CC(CC(=O)NO)(NS(=O)(=O)c2ccc(OCc3cc(C)nc4ccccc34)cc2)C1", "note": "[Example 4i, 2-(1-(2-ethylbutanoyl)-3-((4-((2-methylquinolin-4-yl)methoxy)phenyl)sulfonamido)azetidin-3-yl)-N-hydroxyacetamide]", "IC50": "< 0.05"}
{"smiles": "CCC(=O)N1CC(NS(=O)(=O)c2ccc(OCc3cc(C)nc4ccccc34)cc2)(C(=O)NO)C1", "note": "[Example 7g, N-hydroxy-3-((4-((2-methylquinolin-4-yl)methoxy)phenyl)sulfonamido)-1-propionylazetidine-3-carboxamide]", "IC50": "< 0.05"}
{"smiles": "Cc1cc(COc2ccc(S(=O)(=O)NC3(CC(=O)NO)CN(C(=O)N4CCN(C)CC4)C3)cc2)c2cccc(C)c2n1", "note": "[Example 31, 2-(3-((4-((2,8-dimethylquinolin-4-yl)methoxy)phenyl)sulfonamido)-1-(4-methylpiperazine-1-carbonyl)azetidin-3-yl)-N-hydroxyacetamide]", "IC50": "0.05 to 0.1"}
{"smiles": "CC(=O)N1CC(NS(=O)(=O)c2ccc(OCc3cc(C)nc4ccccc34)cc2)(C(=O)NO)C1", "note": "[Example 8, 1-acetyl-N-hydroxy-3-((4-((2-methylquinolin-4-yl)methoxy)phenyl)sulfonamido) azetidine-3-carboxamide]", "IC50": "< 0.05"}
{"smiles": "CCN(C1(C(=O)NO)CN(C(=O)C2CCOCC2)C1)S(=O)(=O)c1ccc(OCc2cc(C)nc3ccccc23)cc1", "note": "[Example 21b, 3-((N-ethyl-4-((2-methylquinolin-4-yl)methoxy)phenyl)sulfonamido)-N-hydroxy-1-(tetrahydro-2H-pyran-4-carbonyl)azetidine-3-carboxamide]", "IC50": "0.05 to 0.1"}
